Values quoted from earlier work in patent US20140256761A1, “ENHANCED ARTEMISININ-BASED COMBINATION THERAPY FOR TREATING PARASITIC MEDIATED DISEASE” (priority 2009, published 2014).

Columns and labels:
[1] = generally considered
[2] = in vivo
[3] = in water or oils

solubility [3]	SMILES	also measured
	COc1ccc2cc3[n+](cc2c1OC)CCc1cc2c(cc1-3)OCO2 [Berberine, (5,6-Dihydro-9,10-dimethoxybenzo[g]-1,3-benzodioxolo[5,6-a]quinolizinium)]	toxicity [1]: non-toxic
	COc1cc(NC(C)CCCN)c2ncccc2c1 (centres unmarked) [Primaquine]	absorption from the gastro-intestinal tract [2]: readily absorbed
lipid-soluble	CO[C@H]1O[C@@H]2O[C@@]3(C)CC[C@H]4[C@H](C)CC[C@@H]([C@H]1C)[C@@]24OO3 [artemether, (+)-(3-alpha,5a-beta,6-beta,8a-beta, 9-alpha,12-beta,12aR)-decahydro-10-methoxy-3,6,9-trimethyl-3,12-epoxy-12H-pyrano(4,3-j)-1,2-benzodioxepin]	
water-soluble	C[C@H]1[C@H](OC(=O)CCC(=O)O)O[C@@H]2O[C@@]3(C)CC[C@H]4[C@H](C)CC[C@@H]1[C@@]24OO3 [artesunate, 3R,5aS,6R,8aS,9R,10S,12R,12aR)-Decahydro-3,6,9-trimethyl-3,12-epoxy-12H-pyrano(4,3-j)-1,2-benzodioxepin-10-ol hydrogen succinate]	

SMILES	solubility [3]	also measured
C[C@@H]1CC[C@H]2[C@@H](C)C(=O)O[C@@H]3O[C@@]4(C)CC[C@@H]1[C@]32OO4 [artemisinin]	sparingly soluble	
